The target of test [1] is T1, human TRPA1 (Homo sapiens, UniProt O75762).
T1 construct: expressed in transfected cells; host or cells: CHO cells (G-418 selection)
Nature of the test: 45Calcium uptake assay: inhibition of AITC induced cellular uptake of radioactive calcium, human TRPA1 expressing CHO cells. It is filed as cell-based. The note with it: AITC 30 μM; for inhibition at 1 µM: 1.0 μM compound, read-out: human TRPA1 Percentage inhibition at 1.0 μM; for inhibition at 10 µM: 10.0 μM compound, read-out: human TRPA1 Percentage inhibition at 10.0 μM; for IC50: class symbols. From the text:
The illustrative examples of the present invention are screened for TRPA1 activity according to a modified procedure described in (a) Tóth, A. et al. Life Sciences, 2003, 73, 487-498. (b) McNamara C, R. et al, Proc. Natl. Acad. Sci. U.S.A., 2007, 104, 13525-13530. The screening of the compounds can be carried out by other methods and procedures known to persons skilled in the art.
(§1) Screening for TRPA1 Antagonist Using the ^45Calcium Uptake Assay:
(§2) The inhibition of TRPA1 receptor activation was measured as inhibition of allyl isothiocyanate (AITC) induced cellular uptake of radioactive calcium.
Test compounds were dissolved in 100% DMSO to prepare 10 mM stock and then diluted using plain medium with 0.1% BSA and 1.8 mM CaCl2 to get the desired concentration. The final concentration of DMSO in the reaction was 0.5% (v/v). Human TRPA1 expressing CHO cells were grown in F-12 DMEM medium with 10% FBS, 1% penicillin-streptomycin solution, and 400 μg/ml of G-418. Rat TRPA1 expressing CHO cells were grown in F-12 DMEM medium with 10% FBS, 1% penicillin-streptomycin solution, and 400 μg/ml of Zeocin. Cells were seeded 24 h prior to the assay in 96 well plates so as to get ˜50,000 cells per well on the day of experiment. Cells were treated with the test compounds for 10 minutes followed by the addition of AITC at a final concentration of 30 μM (for human TRPA1) and/or 10 μM (for rat TRPA1) and 5 μCi/ml ^45Ca^+2 for 3 minutes. Cells were washed and lysed using a buffer containing 1% Triton X-100, 0.1% deoxycholate and 0.1% SDS. Radioactivity in the lysate was measured in a Packard TopCount after addition of liquid scintillant. (Toth et al, Life Sciences (2003) 73, 487-498; McNamara C R et al, Proceedings of the National Academy of Sciences, (2007) 104, 13525-13530).
(§3) Concentration response curves were plotted as a % of maximal response obtained in the absence of test antagonist. IC50 values can be calculated from concentration response curve by nonlinear regression analysis using GraphPad PRISM software.

The target in test [2] is T2, rat TRPA1 (Rattus norvegicus, UniProt Q6RI86).
T2 construct: expressed in transfected cells; host or cells: CHO cells (Zeocin selection)
Nature of the test: 45Calcium uptake assay: inhibition of AITC induced cellular uptake of radioactive calcium, rat TRPA1 expressing CHO cells. In kind it is cell-based. Particulars: AITC 10 μM; for inhibition at 10 µM: 10.0 μM compound, read-out: rat TRPA1 Percentage inhibition at 10.0 μM; for inhibition at 1 µM: read-out: rat TRPA1 Percentage inhibition; for IC50: class symbols. The protocol: as §1, §2
Test compounds were dissolved in 100% DMSO to prepare 10 mM stock and then diluted using plain medium with 0.1% BSA and 1.8 mM CaCl2 to get the desired concentration. The final concentration of DMSO in the reaction was 0.5% (v/v). […] Rat TRPA1 expressing CHO cells were grown in F-12 DMEM medium with 10% FBS, 1% penicillin-streptomycin solution, and 400 μg/ml of Zeocin. […] Cells were treated with the test compounds for 10 minutes followed by the addition of AITC at a final concentration of 30 μM (for human TRPA1) and/or 10 μM (for rat TRPA1) and 5 μCi/ml ^45Ca^+2 for 3 minutes. Cells were washed and lysed using a buffer containing 1% Triton X-100, 0.1% deoxycholate and 0.1% SDS. Radioactivity in the lysate was measured in a Packard TopCount after addition of liquid scintillant.
as §3

Consider 13 compounds from patent US20120178766A1, “FUROPYRIMIDINEDIONE DERIVATIVES AS TRPAI MODULATORS” (priority 2009, published 2012).

T2 sequence (Q6RI86 whole entry): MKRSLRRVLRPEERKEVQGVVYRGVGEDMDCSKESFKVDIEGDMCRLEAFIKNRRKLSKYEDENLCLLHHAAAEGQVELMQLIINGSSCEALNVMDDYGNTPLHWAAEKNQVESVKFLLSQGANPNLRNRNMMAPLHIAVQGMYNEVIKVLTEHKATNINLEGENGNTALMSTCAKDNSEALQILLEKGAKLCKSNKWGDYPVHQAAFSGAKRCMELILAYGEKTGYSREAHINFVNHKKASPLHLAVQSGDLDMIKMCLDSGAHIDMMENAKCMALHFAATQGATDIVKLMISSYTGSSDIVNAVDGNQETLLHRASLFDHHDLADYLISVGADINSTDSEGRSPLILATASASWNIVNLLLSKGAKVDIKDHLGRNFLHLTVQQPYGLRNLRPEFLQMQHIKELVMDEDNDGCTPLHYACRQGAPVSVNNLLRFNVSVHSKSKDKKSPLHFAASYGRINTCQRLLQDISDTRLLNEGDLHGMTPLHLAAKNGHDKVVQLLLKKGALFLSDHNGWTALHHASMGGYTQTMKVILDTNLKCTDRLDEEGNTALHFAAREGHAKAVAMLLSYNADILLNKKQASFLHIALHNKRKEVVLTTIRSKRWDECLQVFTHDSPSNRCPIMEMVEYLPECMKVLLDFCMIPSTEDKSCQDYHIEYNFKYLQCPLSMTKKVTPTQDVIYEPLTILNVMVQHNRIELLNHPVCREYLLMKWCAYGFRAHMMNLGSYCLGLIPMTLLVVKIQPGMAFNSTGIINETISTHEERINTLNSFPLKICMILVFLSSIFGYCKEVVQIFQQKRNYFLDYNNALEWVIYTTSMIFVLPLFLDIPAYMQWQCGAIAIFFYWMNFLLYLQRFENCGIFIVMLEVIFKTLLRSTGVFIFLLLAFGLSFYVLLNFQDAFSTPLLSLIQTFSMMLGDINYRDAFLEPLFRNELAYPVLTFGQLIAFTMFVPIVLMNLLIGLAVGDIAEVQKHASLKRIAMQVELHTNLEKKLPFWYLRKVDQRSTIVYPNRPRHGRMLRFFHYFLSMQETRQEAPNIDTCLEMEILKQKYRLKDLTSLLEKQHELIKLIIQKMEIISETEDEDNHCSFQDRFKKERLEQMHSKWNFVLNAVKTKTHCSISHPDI
T1 sequence (O75762 whole entry): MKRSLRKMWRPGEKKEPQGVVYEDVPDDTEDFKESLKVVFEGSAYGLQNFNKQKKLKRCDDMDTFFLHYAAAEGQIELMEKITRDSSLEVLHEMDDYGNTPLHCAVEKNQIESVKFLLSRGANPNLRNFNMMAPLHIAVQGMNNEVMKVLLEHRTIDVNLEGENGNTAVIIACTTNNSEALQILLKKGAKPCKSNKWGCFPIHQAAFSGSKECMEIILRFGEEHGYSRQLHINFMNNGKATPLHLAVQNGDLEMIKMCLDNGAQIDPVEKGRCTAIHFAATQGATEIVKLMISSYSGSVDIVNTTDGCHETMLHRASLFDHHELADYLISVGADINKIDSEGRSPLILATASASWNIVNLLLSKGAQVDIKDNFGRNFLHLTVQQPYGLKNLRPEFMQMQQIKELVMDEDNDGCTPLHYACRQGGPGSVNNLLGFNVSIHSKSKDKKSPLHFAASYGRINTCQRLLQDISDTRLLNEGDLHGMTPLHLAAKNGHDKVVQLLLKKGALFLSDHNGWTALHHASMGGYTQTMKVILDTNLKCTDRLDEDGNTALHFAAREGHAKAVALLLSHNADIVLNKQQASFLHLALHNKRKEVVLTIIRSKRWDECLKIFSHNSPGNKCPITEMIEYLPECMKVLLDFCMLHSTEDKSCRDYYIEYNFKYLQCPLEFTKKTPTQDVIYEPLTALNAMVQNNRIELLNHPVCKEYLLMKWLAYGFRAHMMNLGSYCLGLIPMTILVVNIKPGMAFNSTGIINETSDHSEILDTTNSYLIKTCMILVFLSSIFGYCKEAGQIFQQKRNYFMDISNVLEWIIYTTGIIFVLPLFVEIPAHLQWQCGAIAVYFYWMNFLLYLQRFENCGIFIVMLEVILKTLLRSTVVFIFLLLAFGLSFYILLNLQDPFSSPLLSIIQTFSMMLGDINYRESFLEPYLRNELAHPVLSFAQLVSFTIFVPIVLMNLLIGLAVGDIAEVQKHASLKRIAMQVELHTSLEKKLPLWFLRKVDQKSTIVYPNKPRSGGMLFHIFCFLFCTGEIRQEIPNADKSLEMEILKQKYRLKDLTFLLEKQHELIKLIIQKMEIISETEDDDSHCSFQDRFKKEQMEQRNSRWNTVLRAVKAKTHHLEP

On to `Cn1c(=O)c2c(CC(=O)Nc3nc(-c4ccc(OCC(C)(C)C)c(Cl)c4)cs3)coc2n(C)c1=O` [Example 27, N1-{4-[3-Chloro-4-(2,2-dimethylpropoxy)phenyl]-1,3-thiazol-2-yl}-2-(1,3-dimethyl-2,4-dioxo-1,2,3,4-tetrahydrofuro[2,3-d]pyrimidin-5-yl)acetamide], for which, in test [1], the inhibition (commonly the drop in the measured response relative to a control, in per cent) at 1 µM is 97.1%; the inhibition at 10 µM is 99.2%; the IC50 (in general, the concentration that gives 50% inhibition) was over 0.1 µM. In test [2], the inhibition at 10 µM is 100% and the inhibition at 1 µM worked out at 93.1%.
On the same counts, the results for `Cn1c(=O)c2c(CC(=O)Nc3nc(-c4ccc(OCC(C)(C)C)c(Br)c4)cs3)coc2n(C)c1=O` [Example 28, N1-{4-[3-Bromo-4-(2,2-dimethylpropoxy)phenyl]-1,3-thiazol-2-yl}-2-(1,3-dimethyl-2,4-dioxo-1,2,3,4-tetrahydrofuro[2,3-d]pyrimidin-5-yl)acetamide] are 96.7%, 99.3%, over 0.1 µM, 100% and 98.5%.
With `Cn1c(=O)c2c(CC(=O)Nc3nc(-c4ccc(OCC(F)(F)F)c(F)c4)cs3)coc2n(C)c1=O` [Example 30, N1-{4-[3-Fluoro-4-(2,2,2-trifluoroethoxy)phenyl]-1,3-thiazol-2-yl}2-(1,3-dimethyl-2,4-dioxo-1,2,3,4-tetrahydrofuro[2,3-d]pyrimidin-5-yl)acetamide], in test [1], the inhibition at 1 µM worked out at 97.4%, the inhibition at 10 µM stood at 100% and the IC50 was under 0.05 µM. Also, in test [2], the inhibition at 10 µM was determined as 100%, the inhibition at 1 µM came to 97.1% and the IC50 is over 0.1 µM.
Take `Cn1c(=O)c2c(CC(=O)Nc3nc(-c4ccc(OCC(F)(F)F)c(Cl)c4)cs3)coc2n(C)c1=O` [Example 31, N1-{4-[3-Chloro-4-(2,2,2-trifluoroethoxy)phenyl]-1,3-thiazol-2-yl}2-(1,3-dimethyl-2,4-dioxo-1,2,3,4-tetrahydrofuro[2,3-d]pyrimidin-5-yl)acetamide]: in test [1], the inhibition at 1 µM was 98.3%, the inhibition at 10 µM was 99.8% and the concentration for half-maximal inhibition (IC50) was under 0.05 µM. Moreover, in test [2], the inhibition at 10 µM amounted to 100%, the inhibition at 1 µM was 96.8% and the IC50 lay in the range of 0.05 to 0.1 µM.
`Cn1c(=O)c2c(CC(=O)Nc3nc(-c4ccc(OCC(F)(F)F)c(Br)c4)cs3)coc2n(C)c1=O` [Example 32, N1-{4-[3-Bromo-4-(2,2,2-trifluoroethoxy)phenyl]-1,3-thiazol-2-yl}2-(1,3-dimethyl-2,4-dioxo-1,2,3,4-tetrahydrofuro[2,3-d]pyrimidin-5-yl)acetamide]: in test [1], the inhibition at 1 µM was 99.8%, the inhibition at 10 µM amounted to 99.5% and the IC50 was under 0.05 µM. In addition, in test [2], the inhibition at 10 µM was 100%, the inhibition at 1 µM is 85.2% and the half-inhibitory concentration (IC50) was under 0.05 µM.
With `Cn1c(=O)c2c(CC(=O)Nc3nc(-c4ccc(Cl)c(Cl)c4Cl)cs3)coc2n(C)c1=O` [Example 34, N1-[4-(2,3,4-Trichlorophenyl)-1,3-thiazol-2-yl]-2-(1,3-dimethyl-2,4-dioxo-1,2,3,4-tetrahydrofuro[2,3-d]pyrimidin-5-yl)acetamide], in test [1], the inhibition at 1 µM turned out to be 97%, the inhibition at 10 µM came out at 99.7% and the IC50 was under 0.05 µM. In addition, in test [2], the inhibition at 10 µM was 99.3%, the inhibition at 1 µM is 91% and the 50% inhibitory concentration (IC50) was 0.05 to 0.1 µM.
With `Cn1c(=O)c2c(CC(=O)Nc3nc(-c4ccc(F)c(C(F)(F)F)c4F)cs3)coc2n(C)c1=O` [Example 35, N1-{4-[2,4-Difluoro-3-(trifluoromethyl)phenyl]-1,3-thiazol-2-yl}2-(1,3-dimethyl-2,4-dioxo-1,2,3,4-tetrahydrofuro[2,3-d]pyrimidin-5-yl)acetamide], in test [1], the inhibition at 1 µM turned out to be 99.8%, the inhibition at 10 µM stood at 98.4% and the IC50 was under 0.05 µM. Moreover, in test [2], the IC50 was under 0.05 µM.
For `Cn1c(=O)c2c(CC(=O)Nc3nc(-c4cc(F)c(C(F)(F)F)c(F)c4)cs3)coc2n(C)c1=O` [Example 36, N1-{4-[3,5-Difluoro-4-(trifluoromethyl)phenyl]-1,3-thiazol-2-yl}-2-(1,3-dimethyl-2,4-dioxo-1,2,3,4-tetrahydrofuro[2,3-d]pyrimidin-5-yl)acetamide], in test [1], the inhibition at 1 µM is 99.7%, the inhibition at 10 µM was found to be 99.6% and the IC50 was under 0.05 µM. Besides, in test [2], the inhibition at 10 µM worked out at 100%, the inhibition at 1 µM stood at 100% and the IC50 was 0.05 to 0.1 µM.
As for `Cn1c(=O)c2c(CC(=O)Nc3nc(-c4cc(F)c(OC(F)F)c(F)c4)cs3)coc2n(C)c1=O` [Example 37, N1-{4-[3,5-Difluoro-4-(difluoromethoxy)phenyl]-1,3-thiazol-2-yl}-2-(1,3-dimethyl-2,4-dioxo-1,2,3,4-tetrahydrofuro[2,3-d]pyrimidin-5-yl)acetamide], in test [1], the inhibition at 1 µM was 99.9%, the inhibition at 10 µM amounted to 99.7% and the half-maximal inhibitory concentration (IC50) was under 0.05 µM. In test [2], the inhibition at 10 µM came out at 100%, the inhibition at 1 µM was found to be 100% and the IC50 was 0.05 to 0.1 µM.
`Cn1c(=O)c2c(CC(=O)Nc3nc(-c4cc(Cl)c(OC(F)F)c(Cl)c4)cs3)coc2n(C)c1=O` [Example 38, N1-{4-[3,5-Dichloro-4-(difluoromethoxy)phenyl]-1,3-thiazol-2-yl}-2-(1,3-dimethyl-2,4-dioxo-1,2,3,4-tetrahydrofuro[2,3-d]pyrimidin-5-yl)acetamide]: in test [1], the inhibition at 1 µM amounted to 99.8%, the inhibition at 10 µM is 99.9% and the IC50 is under 0.05 µM. In test [2], the inhibition at 10 µM was found to be 100%, the inhibition at 1 µM came to 67% and the IC50 was over 0.1 µM.
Consider `Cn1c(=O)c2c(CC(=O)Nc3nc(-c4cc(F)c(OCC5CC5)c(F)c4)cs3)coc2n(C)c1=O` [Example 39, N1-{4-[4-(Cyclopropylmethoxy)-3,5-difluorophenyl]-1,3-thiazol-2-yl]-2-(1,3-dimethyl-2,4-dioxo-1,2,3,4-tetrahydrofuro[2,3-d]pyrimidin-5-yl)acetamide], for which, in test [1], the inhibition at 1 µM stood at 94.2%, the inhibition at 10 µM came out at 98.7% and the IC50 is under 0.05 µM. For the same compound, the half-inhibitory concentration (IC50) in test [2] was over 0.1 µM.
As to `CC(C)COc1c(F)cc(-c2csc(NC(=O)Cc3coc4c3c(=O)n(C)c(=O)n4C)n2)cc1F` [Example 40, N1-{4-(3,5-Difluoro-4-isobutoxyphenyl)-1,3-thiazol-2-yl}2-(1,3-dimethyl-2,4-dioxo-1,2,3,4-tetrahydrofuro[2,3-d]pyrimidin-5-yl)acetamide], in test [1], the inhibition at 1 µM was 93.2%, the inhibition at 10 µM was found to be 99.2% and the IC50 was under 0.05 µM. In test [2], the inhibition at 10 µM turned out to be 99.6%, the inhibition at 1 µM is 99.2% and the 50% inhibitory concentration (IC50) is under 0.05 µM.
For the compound `CC(C)COc1c(Cl)cc(-c2csc(NC(=O)Cc3coc4c3c(=O)n(C)c(=O)n4C)n2)cc1Cl` [Example 41, N1-[4-(3,5-Dichloro-4-isobutoxyphenyl)-1,3-thiazol-2-yl]-2-(1,3-dimethyl-2,4-dioxo-1,2,3,4-tetrahydrofuro[2,3-d]pyrimidin-5-yl)acetamide], in test [1], the inhibition at 1 µM stood at 99.6%, the inhibition at 10 µM turned out to be 100% and the IC50 was under 0.05 µM. Also, in test [2], the inhibition at 10 µM turned out to be 100%, the inhibition at 1 µM was found to be 99.5% and the IC50 was under 0.05 µM.
